Assay results: patent US9351965B2, “Indazole derivatives useful as ERK inhibitors” (Merck Sharp & Dohme Corp., priority 2010, dated 2016)

target: fully phosphorylated, active Mouse ERK2 protein (Mus musculus (Mouse), UniProt P63085); experiment: Active ERK2 (aERK) IMAP assay; assay type: biochemical; conditions: IMAP fluorescence polarization; 30 μM ATP; 30 minute pre-incubation
Protocol: 14 μl of kinase buffer (10 mM Tris.HCl pH 7.2, 10 mM MgCl2, 0.01% Tween-20, 1 mM DTT) containing 0.4 ng unphosphorylated Mouse ERK2 protein was added to each well of a black 384-well assay plate. […] DMSO concentration during initial incubation is 6.7%. […] DMSO concentration during ERK activation was 4%. After one hour, reactions were terminated by addition of 60 μl IMAP detections beads in binding buffer (Molecular Devices). Binding was allowed to equilibrate for 30 minutes before reading the plate on an LJL Analyst Fluorescence Polarization plate reader.
Active ERK2 (aERK) Assay:
Activated ERK2 activity was also determined in the IMAP assay format using the procedure outlined above. […] Reactions proceeded for 30 minutes before termination by addition of 60 μl IMAP detection beads in binding buffer. Plates were read as above after 30 minute binding equilibration.

Chain of fully phosphorylated, active Mouse ERK2 protein (P63085 whole entry): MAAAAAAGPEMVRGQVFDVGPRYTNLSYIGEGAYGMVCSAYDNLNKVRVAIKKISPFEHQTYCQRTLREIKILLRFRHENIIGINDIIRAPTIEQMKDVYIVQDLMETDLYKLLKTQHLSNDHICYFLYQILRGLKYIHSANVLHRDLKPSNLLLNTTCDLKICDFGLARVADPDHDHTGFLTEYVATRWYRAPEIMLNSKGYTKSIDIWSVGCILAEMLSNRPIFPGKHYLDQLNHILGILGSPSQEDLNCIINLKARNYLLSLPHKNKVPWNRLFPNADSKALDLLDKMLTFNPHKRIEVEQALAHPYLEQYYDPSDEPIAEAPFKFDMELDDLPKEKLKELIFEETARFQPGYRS

SMILES | IC50
Cc1cc(-c2n[nH]c3ccc(C(=O)N[C@@H]4CCC[C@@](O)(Cn5cnc6ncccc65)C4)cc23)ccn1 (relative stereo) [compound 81, N-[cis-3-hydroxy-3-(1H-imidazo[4,5-b]pyridin-1-ylmethyl)cyclohexyl]-3-(2-methyl-4-pyridinyl)-1H-indazole-5-carboxamide] | 825 nM
Cc1cc(-c2n[nH]c3ccc(C(=O)N[C@@H]4CCC[C@@](O)(Cn5cnc6cccnc65)C4)cc23)ccn1 (relative stereo) [compound 82, N-[cis-3-hydroxy-3-(3H-imidazo[4,5-b]pyridin-3-ylmethyl)cyclohexyl]-3-(2-methyl-4-pyridinyl)-1H-indazole-5-carboxamide] | 97.6 nM
Cc1cc(-c2n[nH]c3ccc(C(=O)N[C@@H]4CCC[C@](O)(Cn5ncccc5=O)C4)cc23)ccn1 (relative stereo) [compound 83, N-[trans-3-hydroxy-3-[(6-oxo-1(6h)-pyridazinyl)methyl]cyclohex-yl]-3-(2-methyl-4-pyridinyl)-1H-indazole-5-carboxamide] | 1000 nM
Cc1cc(-c2n[nH]c3ccc(C(=O)N[C@@H]4CCC[C@@](O)(Cn5ncccc5=O)C4)cc23)ccn1 (relative stereo) [compound 84, N-[cis-3-hydroxy-3-[(6-oxo-1(6h)-pyridazinyl)methyl]cyclohex-yl]-3-(2-methyl-4-pyridinyl)-1H-indazole-5-carboxamide] | 1000 nM
O=C(N[C@@H]1CCC[C@](O)(Cn2ccccc2=O)C1)c1ccc2[nH]nc(-c3ccc4nccn4c3)c2c1 (relative stereo) [compound 85, N-[trans-3-hydroxy-3-[(2-oxo-1(2h)-pyridinyl)methyl]cyclohexyl]-3-imidazo[1,2-a]pyridiN-6-yl-1H-indazole-5-carboxamide] | 1000 nM
Cc1cc(-c2n[nH]c3ccc(C(=O)N[C@@H]4CCC[C@](O)(Cn5ncc6cnccc65)C4)cc23)ccn1 (relative stereo) [compound 87, N-[trans-3-hydroxy-3-(1H-pyrazolo[4,3-c]pyridin-1-ylmethyl)cyclohexyl]-3-(2-methyl-4-pyridinyl)-1H-indazole-5-carboxamide] | 410 nM
Cc1cc(-c2n[nH]c3ccc(C(=O)N[C@@H]4CCC[C@](O)(CN5C(=O)Cc6ccccc65)C4)cc23)ccn1 (relative stereo) [compound 88, N-[trans-3-[(2,3-dihydro-2-oxo-1H-indol-1-yl)methyl]-3-hydroxycyclohexyl]-3-(2-methyl-4-pyridinyl)-1H-indazole-5-carboxamide] | 497 nM
Cc1cc(-c2n[nH]c3ccc(C(=O)N[C@@H]4CCC[C@](O)(Cn5c(=O)ccc6ccccc65)C4)cc23)ccn1 (relative stereo) [compound 89, N-[trans-3-hydroxy-3-[(2-oxo-1(2h)-quinolinyl)methyl]cyclohex-yl]-3-(2-methyl-4-pyridinyl)-1H-indazole-5-carboxamide] | 714 nM
Cc1cc(-c2n[nH]c3ccc(C(=O)N[C@@H]4CCC[C@](O)(Cn5cc6ccccc6n5)C4)cc23)ccn1 (relative stereo) [compound 90, N-[trans-3-hydroxy-3-(2H-indazol-2-ylmethyl)cyclohexyl]-3-(2-methyl-4-pyridinyl)-1H-indazole-5-carboxamide] | 27.4 nM
Cc1cc(-c2n[nH]c3ccc(C(=O)N[C@@H]4CCC[C@@](O)(Cn5ncc6cnccc65)C4)cc23)ccn1 (relative stereo) [compound 91, N-[cis-3-hydroxy-3-(1H-pyrazolo[4,3-c]pyridin-1-ylmethyl)cyclohexyl]-3-(2-methyl-4-pyridinyl)-1H-indazole-5-carboxamide] | 563 nM
Cc1cc(-c2n[nH]c3ccc(C(=O)N[C@@H]4CCC[C@@](O)(CN5C(=O)Cc6ccccc65)C4)cc23)ccn1 (relative stereo) [compound 92, N-[cis-3-[(2,3-dihydro-2-oxo-1H-indol-1-yl)methyl]-3-hydroxycyclohexyl]-3-(2-methyl-4-pyridinyl)-1H-indazole-5-carboxamide] | 10.8 nM
Cc1cc(-c2n[nH]c3ccc(C(=O)N[C@@H]4CCC[C@@](O)(Cn5c(=O)ccc6ccccc65)C4)cc23)ccn1 (relative stereo) [compound 93, N-[cis-3-hydroxy-3-[(2-oxo-1(2h)-quinolinyl)methyl]cyclohex-yl]-3-(2-methyl-4-pyridinyl)-1H-indazole-5-carboxamide] | 165 nM
Cc1cc(-c2n[nH]c3ccc(C(=O)N[C@@H]4CCC[C@@](O)(Cn5cc6ccccc6n5)C4)cc23)ccn1 (relative stereo) [compound 94, N-[cis-3-hydroxy-3-(2H-indazol-2-ylmethyl)cyclohexyl]-3-(2-methyl-4-pyridinyl)-1H-indazole-5-carboxamide] | 35 nM
Cc1cc(-c2n[nH]c3ccc(C(=O)N[C@H]4CCC[C@@](O)(Cn5cc(C#N)c6ccccc65)C4)cc23)ccn1 (relative stereo) [compound 95, N-[trans-3-[(3-cyano-1H-indol-1-yl)methyl]-3-hydroxycyclohexyl]-3-(2-methyl-4-pyridinyl)-1H-indazole-5-carboxamide] | 1000 nM
Cc1cc(-c2n[nH]c3ccc(C(=O)NC4CCCC(O)(Cc5ccccc5F)C4)cc23)ccn1 (single isomer, unassigned) [compound 1, N-[3-[(2-fluorophenyl)methyl]-3-hydroxycyclo-hexyl]-3-(2-methyl-4-pyridinyl)-1H-indazole-5-carboxamide] | 589 nM

More lines, now with the values ahead:

IC50 | SMILES
577 nM | Cc1cc(-c2n[nH]c3ccc(C(=O)N[C@H]4CCC[C@@](O)(Cn5ncc6c(F)cccc65)C4)cc23)ccn1 (relative stereo) [compound 96, N-[trans-3-[(4-fluoro-1H-indazol-1-yl)methyl]-3-hydroxycyclohexyl]-3-(2-methyl-4-pyridinyl)-1H-indazole-5-carboxamide]
1000 nM | Cc1cc(-c2n[nH]c3ccc(C(=O)N[C@H]4CCC[C@@](O)(Cn5cc6c(F)cccc6n5)C4)cc23)ccn1 (relative stereo) [compound 97, N-[trans-3-[(4-fluoro-2H-indazol-2-yl)methyl]-3-hydroxycyclohexyl]-3-(2-methyl-4-pyridinyl)-1H-indazole-5-carboxamide]
1000 nM | Cc1cc(-c2n[nH]c3ccc(C(=O)N[C@H]4CCC[C@@](O)(Cn5ncc6cc(F)ccc65)C4)cc23)ccn1 (relative stereo) [compound 98, N-[trans-3-[(5-fluoro-1H-indazol-1-yl)methyl]-3-hydroxycyclohexyl]-3-(2-methyl-4-pyridinyl)-1H-indazole-5-carboxamide]
1000 nM | Cc1cc(-c2n[nH]c3ccc(C(=O)N[C@H]4CCC[C@@](O)(Cn5cc6cc(F)ccc6n5)C4)cc23)ccn1 (relative stereo) [compound 99, N-[trans-3-[(5-fluoro-2H-indazol-2-yl)methyl]-3-hydroxycyclohexyl]-3-(2-methyl-4-pyridinyl)-1H-indazole-5-carboxamide]
1000 nM | Cc1cc(-c2n[nH]c3ccc(C(=O)N[C@H]4CCC[C@@](O)(Cn5ncc6ccc(F)cc65)C4)cc23)ccn1 (relative stereo) [compound 100, N-[trans-3-[(6-fluoro-1H-indazol-1-yl)methyl]-3-hydroxycyclohexyl]-3-(2-methyl-4-pyridinyl)-1H-indazole-5-carboxamide]
704 nM | Cc1cc(-c2n[nH]c3ccc(C(=O)N[C@H]4CCC[C@@](O)(Cn5cc6cccc(F)c6n5)C4)cc23)ccn1 (relative stereo) [compound 102, N-[trans-3-[(7-fluoro-2H-indazol-2-yl)methyl]-3-hydroxycyclohexyl]-3-(2-methyl-4-pyridinyl)-1H-indazole-5-carboxamide]
21.3 nM | Cc1cc(-c2n[nH]c3ccc(C(=O)N[C@H]4CCC[C@](O)(Cn5ncc6c(F)cccc65)C4)cc23)ccn1 (relative stereo) [compound 103, N-[cis-3-[(4-fluoro-1H-indazol-1-yl)methyl]-3-hydroxycyclohexyl]-3-(2-methyl-4-pyridinyl)-1H-indazole-5-carboxamide]
74.3 nM | Cc1cc(-c2n[nH]c3ccc(C(=O)N[C@H]4CCC[C@@](O)(Cn5ncc6cccc(F)c65)C4)cc23)ccn1 (relative stereo) [compound 104, N-[trans-3-[(7-fluoro-1H-indazol-1-yl)methyl]-3-hydroxycyclohexyl]-3-(2-methyl-4-pyridinyl)-1H-indazole-5-carboxamide]
1000 nM | Cc1cc(-c2n[nH]c3ccc(C(=O)N[C@H]4CCC[C@@](O)(Cn5cc6ccc(C(F)(F)F)cc6n5)C4)cc23)ccn1 (relative stereo) [compound 105, N-[trans-3-hydroxy-3-[[6-(trifluoromethyl)-2H-indazol-2-yl]methyl]cyclohexyl]-3-(2-methyl-4-pyridinyl)-1H-indazole-5-carboxamide]
107 nM | Cc1cc(-c2n[nH]c3ccc(C(=O)N[C@H]4CCC[C@](O)(Cn5ncc6ccc(C(F)(F)F)cc65)C4)cc23)ccn1 (relative stereo) [compound 106, N-[cis-3-hydroxy-3-[[6-(trifluoromethyl)-1H-indazol-1-yl]methyl]cyclohexyl]-3-(2-methyl-4-pyridinyl)-1H-indazole-5-carboxamide]
362 nM | Cc1cc(-c2n[nH]c3ccc(C(=O)N[C@H]4CCC[C@](O)(Cn5ncc6ccc(F)cc65)C4)cc23)ccn1 (relative stereo) [compound 107, N-[cis-3-[(6-fluoro-1H-indazol-1-yl)methyl]-3-hydroxycyclohexyl]-3-(2-methyl-4-pyridinyl)-1H-indazole-5-carboxamide]
